Data set [1] in a line: Coulter particle size analysis (laser-light diffractometry, volume statistics). The data set is classed as physicochemical. The procedure:
A 250 μg/mL suspension of microspheres in 1% pluronic F127 [poly(ethylene oxide)-b-poly(propylene oxide)-b-poly(ethylene oxide)]/1% hydroxypropylmethylcellulose (HPMC) was introduced into the small volume fluid module. Only the Coulter output based on volume measurements was used for analysis.

The nature of data set [2]: Dicumarol loading by NaOH extraction. It is filed as physicochemical. The conditions noted are these: dicumarol content by NaOH extraction. The protocol: 100 mg p(FA:SA) 17:83 was dissolved in this solution by sonicating for an additional 30 s. The resultant solution was dispersed into 1.0 L petroleum ether and the precipitate was collected using a 100 nm filter composed of mixed-cellulose esters. The microsphere formulation was then frozen and lyophilized for 24 hours. The dicumarol loading was determined in this formulation by a simple extraction protocol. Microspheres were incubated overnight in 2.5 N NaOH at 37° C. Upon dissolution, an aliquot of approximately 15 μg based on theoretical loading was added to 2.5 N NaOH to make a total volume of 800 μL. This mixture was agitated for 2 minutes and centrifuged for 2 minutes at 11,269 g.
The dicumarol loading was determined in all formulations by a simple extraction protocol. Microspheres were incubated overnight in 2.5 N NaOH at 37° C. Upon dissolution, an aliquot of approximately 15 μg based on theoretical loading was added to 2.5 N NaOH to make a total volume of 800 μL. This mixture was agitated for 2 minutes and centrifuged for 2 minutes at 11,269 g.

Data set [3] in a line: Scanning electron microscopy of dicumarol formulations. It is filed as physicochemical. The procedure: Scanning Electron Microscopy: All samples were sputter-coated with an Au—Pd target for 3.5 minutes and spread out on a carbon-backed adhesive disc on top of the SEM stub. The Hitachi 2700 was used to visualize the samples at an accelerating voltage of 8 kV.
A short description of data set [4]: in vivo. Particulars: rat, 25 mg/kg. From the text:
Rats were anesthetized using isoflurane gas.
Non-compartmental pharmacokinetics were assumed.

Results on one compound are retold here after patent publication US20050100595A1, “Methods for micronization of hydrophobic drugs” (Brown University Research Foundation, priority 2001, published 2005).

Broadly, the bioavailability is dose-corrected exposure relative to a reference, in per cent. Low readings indicate little systemic uptake, high ones much systemic uptake. In general, Cmax refers to the maximum level reached in the sampled fluid or tissue. The Tmax is the time from dosing to the highest level. The term AUC denotes the area under the concentration-time curve, a measure of exposure. A higher AUC goes with high exposure.

In turn, `O=c1oc2ccccc2c(O)c1Cc1c(O)c2ccccc2oc1=O` [Stock, Dicumarol] showed a mean particle diameter in data set [1] (based on volume statistics) of 18.5 μm. Further, in data set [1] (volume calculations, 25% of population less than this size), the “Coulter Particle Analysis 25% <” value is listed as 12.98 μm. For the same compound, the “Coulter Particle Analysis 50% <” value in data set [1] (volume calculations, 50% of population less than this size) is on record as 18.95 μm. In addition, in data set [1] (volume calculations, 75% of population less than this size), the “Coulter Particle Analysis 75% <” value is given as 24.82 μm. In data set [2], the “Loading (drug loading)” value is recorded as 100%. Further, the “particle size seen in SEM micrographs” value in data set [3] (FIG. 1) is reported as 10-20 microns. In addition, the “particle size seen in SEM micrographs” value in data set [3] (FIG. 7A) is listed as “approximately 25 μm”. In addition, in data set [4] (male, Sprague-Dawley), the bioavailability was 90.1 ± 7.3%. In data set [4] (male, Sprague-Dawley, po), the highest level (Cmax) was 73 ± 6 µg/mL, the Tmax is 14 ± 2 h, the “plasma concentration reached (peak of plasma curve)” value stood at 64 µg/mL and the “time after which the peak of the plasma curve was reached” value was found to be 3 h. The compound also returned an exposure (AUC) in data set [4] (po) of 2666 ± 206 µg·h/mL.
